According to patent publication US20260176285A1, “SALT OF DIOXANE QUINOLINE COMPOUND, CRYSTAL FORM THEREOF, PREPARATION METHODS THEREFOR AND USES THEREOF” (Beijing Scitech-MQ Pharmaceuticals Limited, priority 2022, published 2026):

Legend:
Format in all cases: physicochemical
[1] = Hygroscopicity by dynamic moisture sorption (DVS); details: DVS, listed as Di-p-toluenesulfonate salt crystal form A-IV
Protocol: Dynamic moisture sorption (DVS): The curves were collected on a DVS Intrinsic of SMS (Surface Measurement Systems). At 25° C., the humidity range was 0% RH-95% RH, the step was 10% (the last step was 5%), and the dm/dt was 0.002%/min.
The hygroscopicity of the free compound of formula (I), mucate salt crystal form A-I, p-toluenesulfonate salt crystal forms A-II and B-III, di-p-toluenesulfonate salt crystal form A-IV and phosphate salt crystal form A-V was evaluated by dynamic moisture sorption instrument (DVS). Starting from 0% relative humidity (0% RH), the test collected the mass change percentage of the samples under constant temperature of 25° C. with humidity changes (0% RH-95% RH-0% RH).

[2] = Solid-state stability evaluation (XRPD, HPLC); details: listed as Di-p-toluenesulfonate salt crystal form A-IV
Protocol: The following 6 test samples were placed under 25° C./60% RH and 40° C./75% RH conditions for 1 week, and then the physical and chemical stability of the samples was tested by XRPD and HPLC.
At the same time, after the p-toluenesulfonate salt crystal form A-II and crystal form B-III solids were placed at 80° C. for 24 hours, the physical and chemical stability of the samples were tested by XRPD and HPLC.

[3] = Dynamic solubility in water, SGF, FaSSIF and FeSSIF; design: S (dynamic solubility): unit not given here; details: listed as Di-p-toluenesulfonate salt crystal form A-IV; for S (dynamic solubility): 37° C., feed 10 mg/mL
Protocol: Biological solvent Preparation • 1. […] 67.5 μL of concentrated hydrochloric acid (12 M) was added and the mixture was adjusted to a pH value of 1.8 with 1 M hydrochloric acid or 1 M NaOH solution. Purified water was added to make up to volume. • 2. Preparation of Fasted State Simulated Intestinal Fluid (FaSSIF): 0.17 g of anhydrous NaH2PO4, 0.021 g of NaOH, and 0.31 g of NaCl were weighed into a 50-mL volumetric flask. About 48 mL of purified water was added to dissolve the mixture completely, and the solution was adjusted to a pH value of 6.5 with 1 M hydrochloric acid or 1 M NaOH solution. Purified water was added to make up to volume. 0.11 g of SIF powder was added and dissolved completely. • 3. Preparation of Fed State Simulated Intestinal Fluid (FeSSIF): 0.41 mL of glacial acetic acid, 0.20 g of NaOH and 0.59 g of NaCl were weighed into a 50-mL volumetric flask. About 48 mL of purified water was added to dissolve the mixture completely, and the solution was adjusted to a pH value of 5.0 with 1 M hydrochloric acid or 1 M NaOH solution. Purified water was added to make up to volume. 0.56 g of SIF powder was added and dissolved completely.
The dynamic solubility of the free state, the mucate salt crystal form A-I, the p-toluenesulfonate salt crystal form A-II, the di-p-toluenesulfonate salt crystal form A-IV and the phosphate salt crystal form A-V of the compound of formula (I) in water and three biological solvents was evaluated.
The samples at each time point were centrifuged and filtered (0.45 μm PTFE filter head), and the HPLC concentration and pH value of the filtrate were determined.

## O=C(Nc1ccc(F)cc1)C1(C(=O)Nc2ccc(Oc3ccnc4cc(OCCCN5CCOCC5)c5c(c34)OCCO5)c(F)c2)CC1 [Example 4, N-(3-fluoro-4-((5-(3-morpholinopropoxy)-2,3-dihydro-[1,4]dioxano[2,3-f]quinolin-10-yl)oxy)phenyl)-N-(4-fluorophenyl)cyclopropane-1,1-dicarboxamide]
[1]; 25° C./80% RH
  Moisture adsorption (25° C./80% RH): 3.70%
[1]; 25° C.
  Hygroscopicity: Hygroscopic
[2]; 25° C./60% RH, 1 week
  Purity: 99.19 area %
  Purity/initial purity: 100.0%
[2]; 40° C./75% RH, 1 week
  Purity: 99.25 area %
  Purity/initial purity: 100.1%
[2]; Starting
  Purity: 99.18 area %
[3]; FaSSIF, 1 hour
  S (dynamic solubility): 0.035
  pH of the filtrate: 5.6
[3]; FaSSIF, 2 hours
  S (dynamic solubility): 0.080
  pH of the filtrate: 5.2
[3]; FaSSIF, 4 hours
  S (dynamic solubility): 0.16
  pH of the filtrate: 5.0
[3]; FaSSIF, 24 hours
  S (dynamic solubility): 0.20
  pH of the filtrate: 5.0
[3]; FeSSIF, 1 hour
  S (dynamic solubility): 1.6
  pH of the filtrate: 4.9
[3]; FeSSIF, 2 hours
  S (dynamic solubility): 1.8
  pH of the filtrate: 4.8
[3]; FeSSIF, 4 hours
  S (dynamic solubility): 1.4
  pH of the filtrate: 4.8
[3]; FeSSIF, 24 hours
  S (dynamic solubility): 1.0
  pH of the filtrate: 4.9
[3]; H2O, 1 hour
  S (dynamic solubility): 2.9
  pH of the filtrate: 3.7
[3]; H2O, 2 hours
  S (dynamic solubility): 2.9
  pH of the filtrate: 3.9
[3]; H2O, 4 hours
  S (dynamic solubility): 2.8
  pH of the filtrate: 3.8
[3]; H2O, 24 hours
  S (dynamic solubility): 2.7
  pH of the filtrate: 3.8
[3]; SGF, 1 hour
  S (dynamic solubility): 4.5
  pH of the filtrate: 1.9
[3]; SGF, 2 hours
  S (dynamic solubility): 4.6
  pH of the filtrate: 1.9
[3]; SGF, 4 hours
  S (dynamic solubility): 4.3
  pH of the filtrate: 1.9
[3]; SGF, 24 hours
  S (dynamic solubility): 4.2
  pH of the filtrate: 1.9
